# Source: patent US20240100049A1, “REACTIVATION OF EMBRYONIC AND FETAL HEMOGLOBIN” (The Henry M. Jackson Foundation for the Advancement of …, priority 2021, published 2024)
# What was measured:
# MEL cells = assay: Inhibitor treatment of MEL cells, real-time RT-PCR of globin mRNA; assay type: cell-based, Mouse; conditions: for effect on expression levels of Hbb-b1/2 (adult globin): 48 hours treatment
# Protocol: For studies testing inhibitors on MEL cells, the cells were treated with selected inhibitors or vehicle in culture medium (RPMI 1640 medium with 10% fetal bovine serum) for 48 hours and were subsequently harvested and analyzed for relative mRNA levels of Hbb-bh1 and Hbb-y using real-time RT-PCR.
# Primers as used in the Examples as described herein are summarized below.
# human CD34+ HSPCs [1] = assay: Real-time RT-PCR of globin mRNA in erythroid cells differentiated from human CD34+ HSPCs; assay type: cell-based; conditions: 14 days of differentiation; for α-globin mRNA levels: vs DMSO (FIG. 8B)
# Protocol: Human CD34^+ HSPCs treated with PTC596 (PTC) or MI-3454 (MI) at indicated concentrations or vehicle (DMSO) were induced to undergo erythroid differentiation. Cells were harvested after 14 days of differentiation for real-time RT-PCR analysis of human fetal γ (FIG. 8A), embryonic […] (FIG. 8B), and adult β (FIG. 8C) globin mRNA levels. Relative expression levels were calculated by normalizing to GAPDH mRNA levels in the same sample and also to cells treated with DMSO.
# (§1) Primary human mobilized CD34^+ HSPCs (StemCell Technologies Inc.) were initially cultured in expansion medium containing StemSpan-XF Medium (StemCell Technologies Inc.) with 1× CC 100 cytokine mix (StemCell Technologies Inc.). Cells were maintained in this expansion medium at a density of 0.1-1×10^6 cells/ml for a total of 4 days with media changes every two days. On day 4, cells were induced to undergo erythroid differentiation in three phases as known in the art. Briefly, base medium for differentiation contains Iscove's Modified Dulbecco's Medium plus 2% human peripheral blood plasma (Innovative Research), 3% human AB serum (Sigma), […] human holo-transferrin (Sigma), 3 IU/mL heparin (Sigma), […] human insulin (Sigma), and 1% Penicillin-Streptomycin (Life Technologies Inc.). In the first phase (day 0 to day 6), cells were cultured at a concentration of 10^5 cells/ml in the presence of 10 ng/mL human stem cell factor (Biolegend), 1 ng/mL human IL-3 (Biolegend), and 3 IU/mL human erythropoietin (Janssen). In the second phase (day 7 to day 11), IL-3 was omitted from the first phase culture medium. In the third phase (day 12 to day 16), both stem cell factor and IL-3 were omitted and the concentration of transferrin was adjusted to 1 mg/ml. Cell density also was adjusted to 10^6 cells/ml in the beginning of this phase. Drug treatments were started at day 2 of expansion condition and maintained thereafter. New drugs were added every 1-2 days with medium change.
# The effects of PTC596 and MI-3454 on human fetal (γ) and embryonic (ε) globin expression in erythroid cells produced in culture from primary human CD34^+ hematopoietic stem and progenitor cells (HSPCs) were further tested. […] PTC596, MI-3454, or control DMSO were added to the culture from day 2 of the expansion phase and were replenished upon media change every two days.
# γ-Globin = assay: Western blotting of γ-Globin in erythroid-differentiated human CD34+ HSPCs; assay type: cell-based; conditions: erythroid differentiation 14 days
# Protocol: (§2) Western blotting analysis of protein levels of […], BMI1, MEN1, and control ACTIN in CD34^+ HSPCs were treated with PTC596 (PTC) at indicated concentrations (FIG. 9A), MI-3454 (MI) at indicated concentrations (FIG. 9B), or DMSO and induced to undergo erythroid differentiation for 14 days.
# as §1, with “In the second phase (day 7 to day 11), IL-3 was omitted from the first phase culture medium. In the third phase (day 12 to day 16), both stem cell factor and IL-3 were omitted and the concentration of transferrin was adjusted to 1 mg/ml. Cell density also was adjusted to 10^6 cells/ml in the beginning of this phase. Drug treatments were started at day 2 of expansion condition and maintained thereafter. New drugs were added every 1-2 days with medium change.” left out
# MEN1 = molecular target: T1, MEN1 (Homo sapiens, UniProt O00255); assay: Western blotting of MEN1 (MENIN) in erythroid-differentiated human CD34+ HSPCs; assay type: cell-based; conditions: erythroid differentiation 14 days
# T1 construct: Western blotting analysis of protein levels of […], BMI1, MEN1, and control ACTIN in CD34^+ HSPCs; host or cells: primary human mobilized CD34+ HSPCs, erythroid differentiation for 14 days
# T1 sequence (O00255 1-610): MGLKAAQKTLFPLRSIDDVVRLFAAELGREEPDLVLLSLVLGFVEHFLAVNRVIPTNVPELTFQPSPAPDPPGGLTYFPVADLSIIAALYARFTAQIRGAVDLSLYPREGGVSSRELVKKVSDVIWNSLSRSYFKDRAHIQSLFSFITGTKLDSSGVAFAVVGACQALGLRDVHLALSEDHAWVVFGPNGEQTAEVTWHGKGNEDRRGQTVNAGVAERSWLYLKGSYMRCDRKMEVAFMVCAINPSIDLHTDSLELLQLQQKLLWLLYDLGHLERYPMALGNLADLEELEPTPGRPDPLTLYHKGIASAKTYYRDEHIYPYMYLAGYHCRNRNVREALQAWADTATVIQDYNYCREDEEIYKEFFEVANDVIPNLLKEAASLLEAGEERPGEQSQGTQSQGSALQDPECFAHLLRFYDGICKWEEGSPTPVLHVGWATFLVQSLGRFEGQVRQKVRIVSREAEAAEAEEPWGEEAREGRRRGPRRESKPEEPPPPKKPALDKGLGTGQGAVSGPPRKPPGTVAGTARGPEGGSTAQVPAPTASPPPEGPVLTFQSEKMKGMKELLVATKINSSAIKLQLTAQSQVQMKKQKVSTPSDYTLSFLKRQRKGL
# Protocol: as §2
# as §1, with “In the second phase (day 7 to day 11), IL-3 was omitted from the first phase culture medium. In the third phase (day 12 to day 16), both stem cell factor and IL-3 were omitted and the concentration of transferrin was adjusted to 1 mg/ml. Cell density also was adjusted to 10^6 cells/ml in the beginning of this phase. Drug treatments were started at day 2 of expansion condition and maintained thereafter. New drugs were added every 1-2 days with medium change.” left out
# human CD34+ HSPCs [2] = assay: Flow cytometry of F-cells (anti-HbF) in cultures of human CD34+ HSPCs; assay type: cell-based; conditions: erythroid differentiation 14 days
# Source text: Cells were fixed with glutaraldehyde, permeabilized, and stained with a PE-conjugated anti-HbF antibody. The percentages of F-cells are indicated.
# as §1, with “In the third phase (day 12 to day 16), both stem cell factor and IL-3 were omitted and the concentration of transferrin was adjusted to 1 mg/ml. Cell density also was adjusted to 10^6 cells/ml in the beginning of this phase. Drug treatments were started at day 2 of expansion condition and maintained thereafter. New drugs were added every 1-2 days with medium change.” left out
# human CD34+ HSPCs [3] = assay: Cytospin analysis of erythroid differentiation of human CD34+ HSPCs; assay type: cell-based; conditions: after 14 days of differentiation
# Protocol: FIG. 7 is a cytospin analysis showing erythroblasts and reticulocytes in cultures of human CD34^+ HSPCs treated with PTC596 and MI-3454 and induced to undergo erythroid differentiation for 14 days. Cells were stained using Hema 3 staining system (Fisher Scientific). Scale bar, […].
# as §1, with “In the second phase (day 7 to day 11), IL-3 was omitted from the first phase culture medium. In the third phase (day 12 to day 16), both stem cell factor and IL-3 were omitted and the concentration of transferrin was adjusted to 1 mg/ml. Cell density also was adjusted to 10^6 cells/ml in the beginning of this phase. Drug treatments were started at day 2 of expansion condition and maintained thereafter. New drugs were added every 1-2 days with medium change.” left out
# BMI1 = molecular target: T2, BMI1 (Homo sapiens, UniProt P35226); assay: Western blotting of BMI1 in erythroid-differentiated human CD34+ HSPCs; assay type: cell-based; conditions: erythroid differentiation 14 days
# T2 construct: Western blotting analysis of protein levels of […], BMI1, MEN1, and control ACTIN in CD34^+ HSPCs; host or cells: primary human mobilized CD34+ HSPCs, erythroid differentiation for 14 days
# T2 sequence (P35226 1-326): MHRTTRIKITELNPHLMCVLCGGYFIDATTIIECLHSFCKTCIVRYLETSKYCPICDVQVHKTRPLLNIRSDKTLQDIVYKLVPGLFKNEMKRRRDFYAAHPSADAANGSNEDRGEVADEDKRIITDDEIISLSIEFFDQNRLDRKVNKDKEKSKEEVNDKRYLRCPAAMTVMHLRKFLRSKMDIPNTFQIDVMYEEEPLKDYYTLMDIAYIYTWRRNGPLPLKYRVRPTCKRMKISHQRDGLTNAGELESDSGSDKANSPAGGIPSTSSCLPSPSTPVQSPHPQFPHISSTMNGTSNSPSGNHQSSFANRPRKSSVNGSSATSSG
# Protocol: as §2
# as §1, with “In the second phase (day 7 to day 11), IL-3 was omitted from the first phase culture medium. In the third phase (day 12 to day 16), both stem cell factor and IL-3 were omitted and the concentration of transferrin was adjusted to 1 mg/ml. Cell density also was adjusted to 10^6 cells/ml in the beginning of this phase. Drug treatments were started at day 2 of expansion condition and maintained thereafter. New drugs were added every 1-2 days with medium change.” left out
# [4] = tested concentrations, 48 hours
# [5] = 50 nM, 48 hours, relative to DMSO, normalized to Rpl4
compound,measurement,setting,value
CNc1nc(NC2CCN(Cc3ccc4c(cc(C#N)n4CC45CC(NC=O)(C4)C5)c3C)CC2)c2cc(CC(F)(F)F)sc2n1 [MI-3454],effect on expression levels of Hbb-b1/2 (adult globin),MEL cells,minor changes
same,Hbb-bh1 mRNA levels,MEL cells; [4],significant increases
same,Hbb-y mRNA levels,MEL cells; [4],significant increases
same,percentage of γ-globin expression levels in total β-like globin (β+γ+ε) expression levels,human CD34+ HSPCs [1]; vs DMSO,significant increase
same,β-globin mRNA levels,human CD34+ HSPCs [1]; vs DMSO,increase
same,γ-globin mRNA levels,human CD34+ HSPCs [1]; vs DMSO,significantly increased
same,α-globin mRNA levels,human CD34+ HSPCs [1],significantly increased
same,γ-Globin protein levels,γ-Globin,increased
same,MENIN protein levels,MEN1,reduced
same,percentage of F-cells,human CD34+ HSPCs [2],higher percentage
same,erythroid differentiation (erythroblasts and reticulocytes observed),human CD34+ HSPCs [3],not blocked
Cc1nc2ccc(F)cc2n1-c1nc(N)c(F)c(Nc2ccc(C(F)(F)F)cc2)n1 [PTC596],increase of Hbb-bh1 mRNA levels,MEL cells; [5],~20 fold
same,increase of Hbb-y mRNA levels,MEL cells; [5],~15 fold
same,effect on expression levels of Hbb-b1/2 (adult globin),MEL cells,minimal effects
same,percentage of γ-globin expression levels in total β-like globin (β+γ+ε) expression levels,human CD34+ HSPCs [1]; vs DMSO,significant increase
same,γ-globin mRNA levels,human CD34+ HSPCs [1]; vs DMSO,significantly increased
same,α-globin mRNA levels,human CD34+ HSPCs [1],significantly increased
same,γ-Globin protein levels,γ-Globin,increased
same,BMI1 protein levels,BMI1,reduced
same,percentage of F-cells,human CD34+ HSPCs [2],higher percentage
same,erythroid differentiation (erythroblasts and reticulocytes observed),human CD34+ HSPCs [3],not blocked
CCN(C(=O)c1cc(F)ccc1Oc1cncnc1N1CC2(CCN(C[C@H]3CC[C@H](NS(=O)(=O)CC)CC3)CC2)C1)C(C)C [SNDX-5613],Hbb-bh1 mRNA levels,MEL cells; [4],significantly increased
